{"source": "ChEMBL document CHEMBL5247655", "about": "“Simplified Derivatives of Tetrandrine as Potent and Specific P-gp Inhibitors to Reverse Multidrug Resistance in Cancer Chemotherapy” (J Med Chem, 2023)", "key": {"[1]": {"assay": "Oral bioavailability in Sprague-Dawley rat at 30 mg/kg measured upto 24 hrs by UPLC/MS/MS analysis", "format": "ADME, organism-based", "details": "in vivo"}, "[2]": {"test_system": "ECa-109 cell line", "assay": "Reversal of vincristine-resistance in human Eca-109 cells assessed as fold reversal by measuring cell viability incubated for 48 hrs by CCK-8 method relative to vincristine alone", "format": "functional"}, "[3]": {"test_system": "ECa-109 cell line", "assay": "Induction of apoptosis in vincristine resistant human Eca-109 cells assessed as necrotic cells at 1 uM incubated for 24 hrs in presence of vincristine by AnnexinV-FITC/PI staining based flow cytometric analysis (reference value: 0.35%)", "format": "functional"}, "[4]": {"assay": "Apparent volume of distribution during terminal phase in Sprague-Dawley rat at 30 mg/kg, po measured upto 24 hrs by UPLC/MS/MS analysis", "format": "ADME, organism-based", "details": "in vivo, read-out: Vz/F"}, "[5]": {"test_system": "ECa-109 cell line", "assay": "Induction of apoptosis in vincristine resistant human Eca-109 cells assessed as viable cells at 2.5 uM incubated for 24 hrs in presence of vincristine by AnnexinV-FITC/PI staining based flow cytometric analysis (reference value: 89.2%)", "format": "functional", "details": "read-out: Activity"}, "[6]": {"assay": "Toxicity in nude mouse assessed as change in body weight at 30 mg/kg administered every 2 days for 21 days in presence of vincristine", "format": "organism-based", "details": "in vivo, 48 h, time 2 day"}, "[7]": {"assay": "MRT (0 to infinity) in Sprague-Dawley rat at 30 mg/kg, po measured upto 24 hrs by UPLC/MS/MS analysis", "format": "ADME, organism-based", "details": "in vivo"}, "[8]": {"test_system": "ECa-109 cell line", "assay": "Induction of apoptosis in vincristine resistant human Eca-109 cells assessed as viable cells at 1 uM incubated for 24 hrs by AnnexinV-FITC/PI staining based flow cytometric analysis (reference value: 90.3%)", "format": "functional", "details": "read-out: Activity"}, "[9]": {"assay": "Cytotoxicity against human HK-2 cells incubated for 48 hrs by CCK-8 method", "format": "toxicity, cell-based"}, "[10]": {"test_system": "ECa-109", "assay": "Downregulation of P-gp expression in vincristine resistant human Eca-109 cells at 2.5 to 10 uM incubated for 24 hrs by Western blot analysis", "format": "functional, cell-based", "details": "dose 2.5-10 µM"}, "[11]": {"biological_target": "T1, ATP-dependent translocase ABCB1 (Homo sapiens, UniProt P08183)", "T1 sequence (P08183 whole entry)": "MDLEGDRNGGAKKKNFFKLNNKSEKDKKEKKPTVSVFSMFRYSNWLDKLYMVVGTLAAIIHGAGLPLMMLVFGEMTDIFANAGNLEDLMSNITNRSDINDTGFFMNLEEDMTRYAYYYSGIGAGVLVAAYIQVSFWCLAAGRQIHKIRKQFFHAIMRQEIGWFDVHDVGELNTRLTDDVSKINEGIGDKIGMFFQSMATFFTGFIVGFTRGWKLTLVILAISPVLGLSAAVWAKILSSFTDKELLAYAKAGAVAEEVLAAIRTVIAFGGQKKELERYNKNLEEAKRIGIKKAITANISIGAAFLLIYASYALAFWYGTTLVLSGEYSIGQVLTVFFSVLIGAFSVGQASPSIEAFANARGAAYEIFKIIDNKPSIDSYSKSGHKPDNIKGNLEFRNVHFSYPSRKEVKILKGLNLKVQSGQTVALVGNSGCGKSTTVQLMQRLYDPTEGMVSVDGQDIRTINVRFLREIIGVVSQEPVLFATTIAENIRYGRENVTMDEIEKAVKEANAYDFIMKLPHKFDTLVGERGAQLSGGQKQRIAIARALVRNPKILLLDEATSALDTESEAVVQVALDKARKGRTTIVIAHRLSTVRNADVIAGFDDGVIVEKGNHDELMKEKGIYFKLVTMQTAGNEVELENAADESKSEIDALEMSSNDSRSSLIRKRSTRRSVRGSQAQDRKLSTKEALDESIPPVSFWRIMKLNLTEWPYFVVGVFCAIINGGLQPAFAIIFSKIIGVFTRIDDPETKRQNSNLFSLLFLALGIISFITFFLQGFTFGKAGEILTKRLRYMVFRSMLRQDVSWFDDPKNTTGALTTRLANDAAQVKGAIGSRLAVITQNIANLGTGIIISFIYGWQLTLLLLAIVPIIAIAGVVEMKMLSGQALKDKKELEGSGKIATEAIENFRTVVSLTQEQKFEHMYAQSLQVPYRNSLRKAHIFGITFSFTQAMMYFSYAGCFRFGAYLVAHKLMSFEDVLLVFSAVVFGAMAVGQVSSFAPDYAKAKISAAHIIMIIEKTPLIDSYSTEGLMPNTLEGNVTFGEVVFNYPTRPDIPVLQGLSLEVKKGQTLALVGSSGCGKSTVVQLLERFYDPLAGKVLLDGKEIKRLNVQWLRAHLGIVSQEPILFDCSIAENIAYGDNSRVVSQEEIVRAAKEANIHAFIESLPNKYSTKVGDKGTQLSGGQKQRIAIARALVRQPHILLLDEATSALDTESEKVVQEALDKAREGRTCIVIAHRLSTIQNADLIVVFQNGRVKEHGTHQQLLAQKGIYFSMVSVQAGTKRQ", "assay": "Inhibition of P-gp efflux in vincristine resistant human Eca-109 cells assessed as increase in rhodamine 123 fluorescence intensity incubated for 3 hrs", "format": "cell-based", "details": "eca-109, 3 h, dose 0-45 µM"}, "[12]": {"assay": "Cmax in Sprague-Dawley rat at 3 mg/kg, iv measured upto 24 hrs by UPLC/MS/MS analysis", "format": "ADME, organism-based", "design": "time < 24 hrs, dose 3 mg/kg, route iv", "details": "in vivo"}, "[13]": {"assay": "AUC (0 to t) in Sprague-Dawley rat at 3 mg/kg, iv measured upto 24 hrs by UPLC/MS/MS analysis", "format": "ADME, organism-based", "design": "time < 24 hrs, dose 3 mg/kg, route iv", "details": "in vivo"}, "[14]": {"test_system": "ECa-109 cell line", "assay": "Induction of apoptosis in vincristine resistant human Eca-109 cells assessed as late apoptotic cells at 1 uM incubated for 24 hrs by AnnexinV-FITC/PI staining based flow cytometric analysis (reference value: 7.19%)", "format": "functional"}, "[15]": {"assay": "AUC (0 to t) in Sprague-Dawley rat at 30 mg/kg, po measured upto 24 hrs by UPLC/MS/MS analysis", "format": "ADME, organism-based", "design": "time < 24 hrs, dose 30 mg/kg, route po", "details": "in vivo"}, "[16]": {"test_system": "ECa-109 cell line", "assay": "Cytotoxicity against vincristine resistant human Eca-109 cells incubated for 48 hrs by CCK-8 method relative to control", "format": "functional", "design": "concentration or dose not given beside the values"}, "[17]": {"assay": "AUMC (0 to infinity) in Sprague-Dawley rat at 30 mg/kg, po measured upto 24 hrs by UPLC/MS/MS analysis", "format": "ADME, organism-based", "details": "in vivo"}, "[18]": {"test_system": "ECa-109 cell line", "assay": "Induction of apoptosis in vincristine resistant human Eca-109 cells assessed as late apoptotic cells at 5 uM incubated for 24 hrs in presence of vincristine by AnnexinV-FITC/PI staining based flow cytometric analysis (reference value: 6.01%)", "format": "functional"}, "[19]": {"test_system": "ECa-109 cell line", "assay": "Induction of apoptosis in vincristine resistant human Eca-109 cells assessed as early apoptotic cells at 5 uM incubated for 24 hrs by AnnexinV-FITC/PI staining based flow cytometric analysis (reference value: 2.30%)", "format": "functional"}, "[20]": {"assay": "Tmax in Sprague-Dawley rat at 3 mg/kg, iv measured upto 24 hrs by UPLC/MS/MS analysis", "format": "ADME, organism-based", "details": "in vivo"}, "[21]": {"test_system": "ECa-109 cell line", "assay": "Reversal of vincristine-resistance in human Eca-109 cells assessed as fold reversal by measuring cell viability at 2.5 uM incubated for 48 hrs by CCK-8 method relative to vincristine alone", "format": "functional"}, "[22]": {"assay": "Cytotoxicity against human GES1 cells incubated for 48 hrs by CCK-8 method", "format": "toxicity, cell-based"}, "[23]": {"assay": "Cytotoxicity against HEK293T cells incubated for 48 hrs by CCK-8 method", "format": "toxicity, cell-based, HEK-293T", "details": "human"}, "[24]": {"test_system": "ECa-109 cell line", "assay": "Cytotoxicity against human Eca-109 cells incubated for 48 hrs by CCK-8 method", "format": "functional, cell-based", "details": "ECa-109, 48 h"}, "[25]": {"test_system": "ECa-109 cell line", "assay": "Synergistic anticancer activity in vincristine resistant human Eca-109 cells assessed as combination index at 10:1 compound to vincristine ratio measured after 48 hrs", "format": "functional"}, "[26]": {"biological_target": "T1, ATP-dependent translocase ABCB1", "assay": "Inhibition of P-gp efflux in vincristine resistant human Eca-109 cells assessed as increase in intracellular accumulation of calcein-AM at 1 to 5 uM incubated for 1 hr by flow cytometry analysis", "format": "cell-based", "details": "eca-109, 1 h, dose 1-5 µM"}, "[27]": {"test_system": "ECa-109 cell line", "assay": "Induction of apoptosis in vincristine resistant human Eca-109 cells assessed as early apoptotic cells at 2.5 uM incubated for 24 hrs in presence of vincristine by AnnexinV-FITC/PI staining based flow cytometric analysis (reference value: 4.43%)", "format": "functional"}, "[28]": {"test_system": "ECa-109 cell line", "assay": "Reversal of vincristine-resistance in human Eca-109 cells assessed as fold reversal by measuring cell viability at 5 uM incubated for 48 hrs by CCK-8 method relative to vincristine alone", "format": "functional"}, "[29]": {"test_system": "ECa-109 cell line", "assay": "Synergistic antitumor activity against in vincristine resistant p-gp overexpressing human Eca-109 cells xenografted in nude mouse assessed as increase in nuclear pyknosis at 30 mg/kg, IG administered every two days for 21 days in presence of vincristine by TUNEL analysis", "format": "functional, organism-based", "details": "time 21.0 day"}, "[30]": {"test_system": "ECa-109 cell line", "assay": "Reversal of VCR -resistance in human Eca-109 cells assessed as cell viability at 1 uM incubated for 48 hrs by CCK-8 method (reference value: 6830.0+/-537.0 nM)", "format": "functional, cell-based", "details": "ECa-109, 48 h"}, "[31]": {"biological_target": "T1, ATP-dependent translocase ABCB1", "assay": "Inhibition of P-gp efflux in vincristine resistant human Eca-109 cells assessed as effect on accumulation of doxorubicin", "format": "cell-based"}, "[32]": {"test_system": "ECa-109 cell line", "assay": "Induction of apoptosis in vincristine resistant human Eca-109 cells assessed as late apoptotic cells at 1 uM incubated for 24 hrs in presence of vincristine by AnnexinV-FITC/PI staining based flow cytometric analysis (reference value: 6.01%)", "format": "functional"}, "[33]": {"biological_target": "T1, ATP-dependent translocase ABCB1", "assay": "Binding affinity to P-gp in vincristine resistant human Eca-109 cells assessed as stabilization of protein at 67 degree C at 100 uM incubated for 30 mins by thermal shift assay", "format": "cell-based", "details": "eca-109, 0.5 h"}, "[34]": {"assay": "AUC (0 to infinity) in Sprague-Dawley rat at 30 mg/kg, po measured upto 24 hrs by UPLC/MS/MS analysis", "format": "ADME, organism-based", "design": "time < 24 hrs, dose 30 mg/kg, route po", "details": "in vivo"}, "[35]": {"biological_target": "T1, ATP-dependent translocase ABCB1", "assay": "Inhibition of P-gp efflux in vincristine resistant human Eca-109 cells assessed as increase in rhodamine 123 fluorescence intensity at 30 uM", "format": "cell-based", "details": "eca-109, 30 µM, TDE = time-dependent effect, time 0-5 hrs"}, "[36]": {"test_system": "ECa-109 cell line", "assay": "Induction of apoptosis in vincristine resistant human Eca-109 cells assessed as viable cells at 2.5 uM incubated for 24 hrs by AnnexinV-FITC/PI staining based flow cytometric analysis (reference value: 90.3%)", "format": "functional", "details": "read-out: Activity"}}, "note": "Active and inactive are the calls of the source. The calls are words filed in the database; no cut-off is given here."}
{"smiles": "COc1cc2c(cc1OC)C(Cc1ccc(OC)c(OCc3ccccc3)c1)N(C)CC2", "note": "(stereo unspecified)", "values": [{"measurement": "bioavailability", "setting": "[1]", "value": 7.65, "unit": "%"}, {"measurement": "fold change (FC)", "setting": "[2]", "value": 690.6}, {"measurement": "Activity", "setting": "[3]", "value": 0.37, "unit": "%"}, {"measurement": "Vd/F", "setting": "[4]", "value": 111, "unit": "L/kg"}, {"measurement": "viability at 2.5 µM", "setting": "[5]", "value": 70.5, "unit": "%"}, {"measurement": "Activity", "setting": "[6]", "value": "Non-Toxic"}, {"measurement": "MRT inf", "setting": "[7]", "value": 4.89, "unit": "h"}, {"measurement": "viability at 1 µM", "setting": "[8]", "value": 91.6, "unit": "%"}, {"measurement": "IC50 at 48 h", "setting": "[9]", "value": "> 50", "unit": "µM"}, {"measurement": "Activity", "setting": "[10]", "value": "inactive"}, {"measurement": "inhibition (INH)", "setting": "[11]", "value": "Dose-Dependent Effect"}, {"measurement": "Cmax", "setting": "[12]", "value": 1570, "unit": "ng/mL"}, {"measurement": "AUC(0-t) at 24 h", "setting": "[13]", "value": 2690, "unit": "ng·h/mL"}, {"measurement": "Activity", "setting": "[14]", "value": 6.12, "unit": "%"}, {"measurement": "AUC(0-t) at 24 h", "setting": "[15]", "value": 2670, "unit": "ng·h/mL"}, {"measurement": "Activity", "setting": "[16]", "value": 95.3, "unit": "%"}, {"measurement": "AUMC", "setting": "[17]", "value": 131110.55, "unit": "ng/mL.hr^2"}, {"measurement": "Activity", "setting": "[18]", "value": 9.81, "unit": "%"}, {"measurement": "Activity", "setting": "[19]", "value": 2.51, "unit": "%"}, {"measurement": "Tmax", "setting": "[20]", "value": 0.17, "unit": "h"}, {"measurement": "fold change (FC)", "setting": "[21]", "value": 103.4}, {"measurement": "IC50 at 48 h", "setting": "[22]", "value": "> 50", "unit": "µM"}, {"measurement": "IC50 at 48 h", "setting": "[23]", "value": "> 50", "unit": "µM"}, {"measurement": "IC50", "setting": "[24]", "value": "> 100", "unit": "µM"}, {"measurement": "CI", "setting": "[25]", "value": "<1"}, {"measurement": "inhibition (INH)", "setting": "[26]", "value": "Active"}, {"measurement": "Activity", "setting": "[27]", "value": 17.8, "unit": "%"}, {"measurement": "fold change (FC)", "setting": "[28]", "value": 690.6}, {"measurement": "Activity", "setting": "[29]", "value": "Active"}, {"measurement": "IC50", "setting": "[30]", "value": 1.87, "unit": "µM"}, {"measurement": "inhibition (INH)", "setting": "[31]", "value": "Active"}, {"measurement": "Activity", "setting": "[32]", "value": 8.64, "unit": "%"}, {"measurement": "Activity", "setting": "[33]", "value": "Active"}, {"measurement": "AUC(0-inf)", "setting": "[34]", "value": 2740, "unit": "ng·h/mL"}, {"measurement": "inhibition (INH)", "setting": "[35]", "value": "Tde"}, {"measurement": "viability at 2.5 µM", "setting": "[36]", "value": 91.9, "unit": "%"}]}
